[5FU] = 5-fluorouracil base replacing uracil
Legend:
A549 lung cancer cells = assay: Cell proliferation, A549; assay type: cell-based, human; conditions: for lung cancer cell proliferation: A549, compared to negative controls; for inhibition of cell proliferation: A549, compared to unmodified miR or negative controls
In short: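 Cells were transfected with 100 nM control, modified or native miRNA via Oligofectamine, or reagent-free with 100 pmol miRNA, then reseeded 24 h later at 2000 cells/well. WST-1 was added for 1 h on days 1 to 5, and O.D. was taken as absorbance at 450 nm minus 630 nm.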

[1] = tested on: metastatic human colon cancer cells; assay: Colon cancer metastasis mouse model, intravenous miRNA delivery; assay type: in vivo; conditions: 40 μg intravenous, every other day for two weeks
Description: For in vivo miRNA delivery experiments, colon cancer cells were created that expressed the lenti-luc reporter gene by infecting parental HCT116 cells with a recombinant lentivirus. Luciferase-expressing HCT116 cells (2.0×10^6 cells per mouse) were suspended in 0.1 mL of PBS solution and was injected through tail vein of each mouse. Two weeks after injection of colon cancer cells, mice were treated via tail vein injection with 40 μg of negative control or modified miR(s) packaged with in vivo-jetPEI (Polyplus Transfection). Mice were treated every other day for 2 weeks (8 times). Following treatment, mice were screened using IVIS Spectrum In vivo Imaging System (IVIS) (PerkinElmer).

[2] = tested on: acute lymphocytic leukemia cell line (REH); assay: Cell proliferation, REH; assay type: cell-based, human; conditions: 50 nM, 25 nM, 12.5 nM, 6.25 nM, and 3.125 nM
[3] = tested on: acute lymphocytic leukemia cell line (REH); assay: Cell proliferation, REH; assay type: cell-based, human; conditions: compared to negative controls
RKO colon cancer cells = assay: WST-1 cell proliferation assay, RKO; assay type: cell-based, human; conditions: in words, vs controls
Description: (§1) For transfections, 1×10^5 cells were plated in six-well plates and transfected with 100 nM of control non-specific miRNA (Thermo Fischer), a modified microRNA, or exogenous native microRNA after 24 hours using Oligofectamine (Thermo Fischer) following the manufacturer's protocols. For reagent free transfection, cells were plated in 6 well plates at (1×10^5) cells per well. Twenty-four hours later 100 pmol miRNA (Control, miR-15a, Mimic-1) were diluted in Optimem (Thermo Fischer) and added to the plate. Media was changed after 24 hours. Media was supplemented with 10% fetal bovine serum (Thermo Fischer). Briefly, cells were cultured in growth media (DMEM/F12 supplemented with B27, 10 ng/mL bFGF, and 20 ng/mL EGF (Life Technologies) in ultra-low attachment flasks) for up to 6 days. […]
(§2) Cell proliferation assay: Twenty-four hours after transfection, cells were seeded in 96-well plates at a density of 2000 cells per well. The cell proliferation assay was performed on days 1 to 5 by incubating 10 μl WST-1 (Roche Applied Science, Mannheim, Germany) in the culture medium for 1 h and reading the absorbance at 450 and 630 nm. The cell proliferation rate was calculated by subtracting the absorbance at 450 nm from the absorbance at 630 nm. […] The O.D. was calculated by subtracting the absorbance at 630 nm from that at 450 nm. […]

[4] = tested on: AsPC-1 pancreatic cancer cells; assay: Cell proliferation, AsPC-1; assay type: cell-based, human; conditions: for cell proliferation, dose dependence: APSC-1, 50 nM, 25 nM, 12.5 nM, 6.25 nM, and 3.125 nM
colon cancer stem cells = assay: Anchorage-independent colony formation (soft agar); assay type: cell-based, human; conditions: soft agar / Matrigel matrix
Description: Anchorage-independent proliferation was studied to determine cancer cell colony forming ability. Cancer cells were trypsinized and counted and a total of 1×10^5 cells per well were transfected in 6-well plates with 25 nM modified microRNA or native miRs or a negative control miRNA with oligofectamine, and 6 hours after transfection, cells were recounted. A total of 20,000 cells in 0.35% agar (Bacto Agar; Becton Dickinson) were layered on top of 1 mL of a solidified 0.6% agar layer in a 35-mm dish. Growth media with B27, 10 ng/mL bFGF, and 20 ng/mL EGF were included in both layers. After 2 weeks of incubation, colonies more than […] in diameter were counted.

[5] = tested on: Hs766T pancreatic cancer cells; assay: Cell proliferation, Hs766T; assay type: cell-based, human; conditions: compared to negative controls
In short: (§3)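 Cells transfected with 100 nM control, modified or native miRNA (Oligofectamine) or with 100 pmol miRNA without reagent. Seeded at 2000 cells/well 24 h post-transfection; WST-1 read for 1 h on days 1 to 5 at 450 and 630 nm. Values are O.D. (450 minus 630 nm), from at least three experiments.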

SW620 colon cancer cells = assay: WST-1 cell proliferation assay, SW620; assay type: cell-based, human; conditions: SW620, in words, vs controls
Description: as §1, §2

TS-FdUMP = target: T1, TS-FdUMP (Homo sapiens, UniProt P04818); assay: Western blot of TS-FdUMP in colon cancer cells; assay type: cell-based; conditions: colon/colorectal cancer cells
T1 construct: endogenous in cells
Description: Western immunoblot analysis: Forty-eight hours after transfection, equal amounts of protein (15 μg) extracted from cells lysed in RIPA buffer with protease inhibitor (Sigma) and were separated on 10%-12% sodium dodecyl sulfate-polyacrylamide gels using standard procedures. The primary antibodies used for the analysis were rabbit anti-YAP1 monoclonal antibody (1:10000) (Cell Signaling Technologies), anti-DLCK1 (1:500) (Abcam), anti-BCL2 (1:500) (NeoMarkers), anti-MDC1 (1:500), anti-SUZ12 (1:500), anti-pChk-1 (1:500), anti beta-actin (1:500), anti-BMI-1 (1:10000) (Cell Signaling Technologies), mouse anti-human TS antibody (1:500), anti-α-tubulin (1:50000) (Santa Cruz Biotech Inc.), anti-GAPDH (1:100000) (Santa Cruz Biotech Inc.), anti-E2F3 (1:500) (Santa Cruz Biotech Inc.), Horseradish peroxidase-conjugated antibodies against mouse or rabbit (1:5000, Santa Cruz Biotech Inc.) were used as the secondary antibodies. Protein bands were visualized with autoradiography film using SuperSignal West Pico Chemiluminescent Substrate (Thermo Fischer). Western blot density was quantified using Image J software.

AGS stomach cancer cells = assay: Cell proliferation, AGS; assay type: cell-based, human; conditions: compared to negative controls
In short: as §3

HCT-116 cells = assay: Cell cycle analysis by flow cytometry, colon cancer cells; assay type: cell-based, human
Description: Cell cycle analysis: Twenty-four hours after transfection, cells were harvested and resuspended at 0.5 to 1×10^6 cells/mL in modified Krishan's buffer supplemented with 0.02 mg/mL RNase H and 0.05 mg/mL propidium iodide. Stained cells were detected by flow cytometry and results were analyzed with Modfit LT™ software. The experiments for cell cycle analysis were performed at least three times.

T1 sequence (P04818 2-313 limits assumed): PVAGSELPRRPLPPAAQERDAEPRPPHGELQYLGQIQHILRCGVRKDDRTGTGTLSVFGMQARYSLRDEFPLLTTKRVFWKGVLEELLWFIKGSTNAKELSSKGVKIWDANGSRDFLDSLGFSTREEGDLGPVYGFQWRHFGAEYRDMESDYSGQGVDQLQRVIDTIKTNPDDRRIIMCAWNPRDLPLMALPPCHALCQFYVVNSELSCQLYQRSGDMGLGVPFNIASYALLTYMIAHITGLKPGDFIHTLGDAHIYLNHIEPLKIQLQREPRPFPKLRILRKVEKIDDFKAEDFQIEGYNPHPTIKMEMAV

Substance	lung cancer cell proliferation (A549 lung cancer cells)	inhibition of cell proliferation (A549 lung cancer cells)	colon cancer metastasis [1]	toxicity [1]	toxicity ([1]; listed as modified microRNA-129)	leukemia cancer cell proliferation, dose dependence [2]	leukemia cancer cell proliferation [3]	inhibition of colon cancer cell proliferation (RKO colon cancer cells)	cell proliferation, dose dependence [4]	colony / sphere formation (colon cancer stem cells)	pancreatic cancer cell proliferation [5]	inhibition of colon cancer cell proliferation (SW620 colon cancer cells)	TS-FdUMP break down (TS-FdUMP)	gastric cancer cell proliferation (AGS stomach cancer cells)	G1 arrest, potency relative to native miR-129 (HCT-116 cells; HCT-116, flow cytometry)	inhibition of cell proliferation ([4]; AsPC-1, compared to unmodified miR or negative controls)	increase in the G1/S ratio (HCT-116 cells; colon cancer cells, compared to the control) [fold]
CU^FU^FU^FU^FU^FGCGGU^FCU^FGGGCU^FU^FGC (CUUUUUGCGGUCUGGGCUUGC; RNA, [5FU] at 2, 3, 4, 5, 6, 11, 13, 18, 19, backbone not given here) [modified miR-129]	inhibited	enhanced ability to inhibit	inhibits colon cancer metastasis	did not exhibit any toxicity	no toxic side effects	inhibited in a dose dependent manner	inhibited	inhibition of colon cancer cell proliferation	inhibited in a dose dependent manner	formed no visible spheres	inhibited	inhibition of colon cancer cell proliferation	break downs TS-FdUMP significantly better than 5-FU alone	inhibited	more than two-fold	–	–
U^FAGCAGCACAU^FAAU^FGGU^FU^FU^FGU^FG (UAGCAGCACAUAAUGGUUUGUG; RNA, [5FU] at 1, 11, 14, 17, 18, 19, 21, backbone not given here) [modified miR-15a]	inhibited	enhanced ability to inhibit	inhibit colon cancer metastasis	did not exhibit any toxicity	–	inhibited in a dose dependent manner	inhibited	enhanced ability to inhibit colon cancer cell proliferation	inhibited in a dose dependent manner	no colonies were observed	inhibited	enhanced ability to inhibit colon cancer cell proliferation	break downs TS-FdUMP	inhibited	–	enhanced ability to inhibit	7

Source: patent US12319913B2, “5-halouracil-modified microRNAs and their use in the treatment of cancer” (The Research Foundation for The State University of New York, priority 2018, dated 2025)
